Reference: paper PMC12136037, “Type II kinase inhibitors that target Parkinson’s disease–associated LRRK2” (Science Advances, 2025)
Where “and” joins values, the source holds several entries; their conditions need not be identical. Equal entries are not always repeated.

Assays:
LRRK2^RCKW = target: T1, LRRK2^RCKW (Homo sapiens, UniProt Q5S007); experiment: Biochemical LRRK2 activity assay (PhosphoSense, AssayQuant SOX peptide AQT0615); settings: for IC50: LRRK2^RCKW kinase activity, in vitro; for normalized response (LRRK2 activity): normalized to 0% (no kinase) and 100% (no inhibitor) control, two singlicate columns per compound
T1 construct: LRRK2 R1327 to E2527; His6-Z-tag (TEV cleavable) (N, cleaved yes); host or cells: Sf9 insect cells (baculovirus)
T1 sequence (Q5S007 1327-2527): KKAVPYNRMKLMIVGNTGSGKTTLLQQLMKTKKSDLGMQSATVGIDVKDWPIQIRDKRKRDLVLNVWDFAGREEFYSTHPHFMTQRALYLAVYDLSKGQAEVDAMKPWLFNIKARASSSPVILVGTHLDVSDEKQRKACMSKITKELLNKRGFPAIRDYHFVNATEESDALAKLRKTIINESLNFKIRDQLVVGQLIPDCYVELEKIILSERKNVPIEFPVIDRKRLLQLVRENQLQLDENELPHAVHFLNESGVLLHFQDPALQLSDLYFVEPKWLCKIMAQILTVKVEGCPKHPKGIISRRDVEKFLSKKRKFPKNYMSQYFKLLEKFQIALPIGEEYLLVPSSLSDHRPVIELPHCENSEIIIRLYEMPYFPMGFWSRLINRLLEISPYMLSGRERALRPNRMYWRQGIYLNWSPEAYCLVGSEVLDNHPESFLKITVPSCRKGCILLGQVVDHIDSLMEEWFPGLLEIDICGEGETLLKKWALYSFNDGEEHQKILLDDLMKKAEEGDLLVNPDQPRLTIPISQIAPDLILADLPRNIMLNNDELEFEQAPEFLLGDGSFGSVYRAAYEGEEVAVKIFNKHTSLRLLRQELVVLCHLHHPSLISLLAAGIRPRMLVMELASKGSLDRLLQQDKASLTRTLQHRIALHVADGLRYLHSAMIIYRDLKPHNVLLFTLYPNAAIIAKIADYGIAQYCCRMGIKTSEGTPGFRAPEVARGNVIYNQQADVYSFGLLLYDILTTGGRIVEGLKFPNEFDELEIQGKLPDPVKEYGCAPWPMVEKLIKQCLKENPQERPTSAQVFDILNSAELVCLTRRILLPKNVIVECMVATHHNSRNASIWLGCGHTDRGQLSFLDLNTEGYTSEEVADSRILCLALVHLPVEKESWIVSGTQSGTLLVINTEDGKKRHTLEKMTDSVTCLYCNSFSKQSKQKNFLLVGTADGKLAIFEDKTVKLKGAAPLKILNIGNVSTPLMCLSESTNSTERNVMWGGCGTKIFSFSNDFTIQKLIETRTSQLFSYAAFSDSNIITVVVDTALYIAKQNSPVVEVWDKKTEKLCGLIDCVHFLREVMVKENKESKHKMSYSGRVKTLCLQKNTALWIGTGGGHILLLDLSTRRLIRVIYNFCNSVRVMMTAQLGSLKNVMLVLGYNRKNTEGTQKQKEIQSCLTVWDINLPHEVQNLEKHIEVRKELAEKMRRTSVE
Outline: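 Controls lacked protein and compound (0%) or compound only (100%). IC50 derived by nonlinear regression of normalized response versus log[inhibitor].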

[1] = target: T2, ~100 representative kinases (Homo sapiens, UniProt Q02750); experiment: DSF 100 kinase selectivity screen; type: binding; settings: protein MAP2K1; average of three replicates;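 also: compound tested at 20 µM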
T2 construct: Recombinant protein kinase domains with a concentration of 2 μM
Outline: (§1)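 Each kinase domain, at 2 μM, is mixed with 20 μM test compound and SYPRO Orange in Hepes (20 mM, pH 7.5) with 500 mM NaCl. Temperature is then raised at 3°C/min and fluorescence-monitored unfolding yields the melting temperature change, ΔTm in degrees Celsius.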

[2] = target: T3, ~100 representative kinases (Homo sapiens, UniProt Q96GD4); experiment: DSF 100 kinase selectivity screen; type: binding; settings: Protein AURKB; average of three replicates;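 also: compound tested at 20 µM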
T3 construct: Recombinant protein kinase domains with a concentration of 2 μM
Outline: as §1

T3 sequence (Q96GD4 whole entry, the tested form may be a part): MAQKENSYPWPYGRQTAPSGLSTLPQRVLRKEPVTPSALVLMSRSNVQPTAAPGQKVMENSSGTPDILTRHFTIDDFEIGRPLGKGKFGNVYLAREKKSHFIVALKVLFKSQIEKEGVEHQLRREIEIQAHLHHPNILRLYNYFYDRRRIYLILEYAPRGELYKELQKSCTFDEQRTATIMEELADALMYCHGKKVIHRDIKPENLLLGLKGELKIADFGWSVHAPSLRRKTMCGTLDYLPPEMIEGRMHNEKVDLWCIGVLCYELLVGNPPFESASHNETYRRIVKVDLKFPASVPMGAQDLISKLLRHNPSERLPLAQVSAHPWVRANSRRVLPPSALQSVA
T2 sequence (Q02750 whole entry, the tested form may be a part): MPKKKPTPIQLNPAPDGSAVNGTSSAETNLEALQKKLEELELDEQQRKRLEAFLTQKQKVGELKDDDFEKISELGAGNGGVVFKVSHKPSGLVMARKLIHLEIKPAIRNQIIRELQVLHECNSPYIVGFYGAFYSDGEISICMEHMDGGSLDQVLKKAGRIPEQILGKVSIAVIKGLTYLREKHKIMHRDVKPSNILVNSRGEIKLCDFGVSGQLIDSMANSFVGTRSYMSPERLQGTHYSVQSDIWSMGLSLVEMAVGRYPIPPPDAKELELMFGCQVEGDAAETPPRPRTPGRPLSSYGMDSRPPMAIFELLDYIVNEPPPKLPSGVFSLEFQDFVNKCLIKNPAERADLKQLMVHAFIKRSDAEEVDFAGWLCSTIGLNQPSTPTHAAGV

SMILES: Cc1ccc(-n2nc(C(C)(C)C)cc2NC(=O)Nc2cccc(-c3c[nH]c4nc(Cl)nc(N5CCOCC5)c34)c2)cc1 [Compound 30]
- IC50 (LRRK2^RCKW): 135 ± 2 nM
- normalized response (LRRK2 activity) (LRRK2^RCKW; log[inhibitor(mol)] -5.12494): -8.095% and -6.809%
- normalized response (LRRK2 activity) (LRRK2^RCKW; log[inhibitor(mol)] -5.60206): 75.5755% and 70.6669%
- normalized response (LRRK2 activity) (LRRK2^RCKW; log[inhibitor(mol)] -6.30103): 8.742% and 11.7467%
- normalized response (LRRK2 activity) (LRRK2^RCKW; log[inhibitor(mol)] -6.90309): 50.7191% and 51.183%
- normalized response (LRRK2 activity) (LRRK2^RCKW; log[inhibitor(mol)] -7.30103): 75.6682% and 82.0657%
- normalized response (LRRK2 activity) (LRRK2^RCKW; log[inhibitor(mol)] -7.60206): 86.9301% and 90.6015%
- normalized response (LRRK2 activity) (LRRK2^RCKW; log[inhibitor(mol)] -8.09691): 94.0388% and 92.0065%
- normalized response (LRRK2 activity) (LRRK2^RCKW; log[inhibitor(mol)] -8.61979): 101.276% and 93.5219%
- normalized response (LRRK2 activity) (LRRK2^RCKW; log[inhibitor(mol)] -9.09691): 104.187% and 96.8267%
- normalized response (LRRK2 activity) (LRRK2^RCKW; log[inhibitor(mol)] -9.39794): 100.869% and 63.9823%
- dTm [1]: 0.49 K
- dTm [2]: -0.56 K

SMILES: CC(=O)N1CCN(c2nc(Cl)nc3[nH]cc(-c4cccc(NC(=O)Nc5cc(C(C)(C)C)nn5-c5ccc(C)cc5)c4)c23)CC1 [Compound 31]
- IC50 (LRRK2^RCKW): 82.4 ± 19 nM
- normalized response (LRRK2 activity) (LRRK2^RCKW; log[inhibitor(mol)] -5.12494): -8.142% and -8.098%
- normalized response (LRRK2 activity) (LRRK2^RCKW; log[inhibitor(mol)] -5.60206): -6.069% and -3.667%
- normalized response (LRRK2 activity) (LRRK2^RCKW; log[inhibitor(mol)] -6.30103): 1.516% and 5.662%
- normalized response (LRRK2 activity) (LRRK2^RCKW; log[inhibitor(mol)] -6.90309): 27.0499% and 37.6124%
- normalized response (LRRK2 activity) (LRRK2^RCKW; log[inhibitor(mol)] -7.30103): 59.8343% and 70.8356%
- normalized response (LRRK2 activity) (LRRK2^RCKW; log[inhibitor(mol)] -7.60206): 80.8168% and 85.4399%
- normalized response (LRRK2 activity) (LRRK2^RCKW; log[inhibitor(mol)] -8.09691): 99.1997% and 109.801%
- normalized response (LRRK2 activity) (LRRK2^RCKW; log[inhibitor(mol)] -8.61979): 111.451% and 122.71%
- normalized response (LRRK2 activity) (LRRK2^RCKW; log[inhibitor(mol)] -9.09691): 117.928% and 123.215%
- normalized response (LRRK2 activity) (LRRK2^RCKW; log[inhibitor(mol)] -9.39794): 115.57% and 119.935%
- dTm [1]: 0.59 K
- dTm [2]: -1.00 K

SMILES: CCSc1nc(NC)c2c(-c3cccc(NC(=O)Nc4cc(C(C)(C)C)nn4-c4ccc(C)cc4)c3)c[nH]c2n1 [Compound 32]
- IC50 (LRRK2^RCKW): 296 ± 39 nM
- normalized response (LRRK2 activity) (LRRK2^RCKW; log[inhibitor(mol)] -5.12494): -7.459% and -2.016%
- normalized response (LRRK2 activity) (LRRK2^RCKW; log[inhibitor(mol)] -5.60206): 19.5756% and 16.293%
- normalized response (LRRK2 activity) (LRRK2^RCKW; log[inhibitor(mol)] -6.30103): 31.5753% and 35.852%
- normalized response (LRRK2 activity) (LRRK2^RCKW; log[inhibitor(mol)] -6.90309): 72.0233% and 73.3531%
- normalized response (LRRK2 activity) (LRRK2^RCKW; log[inhibitor(mol)] -7.30103): 83.8241% and 86.8594%
- normalized response (LRRK2 activity) (LRRK2^RCKW; log[inhibitor(mol)] -7.60206): 89.687% and 98.7972%
- normalized response (LRRK2 activity) (LRRK2^RCKW; log[inhibitor(mol)] -8.09691): 90.4381% and 87.8004%
- normalized response (LRRK2 activity) (LRRK2^RCKW; log[inhibitor(mol)] -8.61979): 96.4865% and 91.0964%
- normalized response (LRRK2 activity) (LRRK2^RCKW; log[inhibitor(mol)] -9.09691): 94.4983% and 98.9209%
- normalized response (LRRK2 activity) (LRRK2^RCKW; log[inhibitor(mol)] -9.39794): 96.9901% and 60.5361%
- dTm [1]: 0.11 K
- dTm [2]: 0.28 K

SMILES: COc1cc(C(=O)N2CCOCC2)c(F)cc1Nc1nc(N(C)C)c2c(Cl)c[nH]c2n1 [Compound 36]
- IC50 (LRRK2^RCKW): 4.96 ± 0.11 nM
- normalized response (LRRK2 activity) (LRRK2^RCKW; log[inhibitor(mol)] -5.12494): -4.747% and -10.7141%
- normalized response (LRRK2 activity) (LRRK2^RCKW; log[inhibitor(mol)] -5.60206): -11.8877% and -7.237%
- normalized response (LRRK2 activity) (LRRK2^RCKW; log[inhibitor(mol)] -6.30103): -22.7354% and -19.8398%
- normalized response (LRRK2 activity) (LRRK2^RCKW; log[inhibitor(mol)] -6.90309): -16.5877% and -9.211%
- normalized response (LRRK2 activity) (LRRK2^RCKW; log[inhibitor(mol)] -7.30103): -3.623% and 0.9398%
- normalized response (LRRK2 activity) (LRRK2^RCKW; log[inhibitor(mol)] -7.60206): 12.0233% and 5.13%
- normalized response (LRRK2 activity) (LRRK2^RCKW; log[inhibitor(mol)] -8.09691): 39.1206% and 42.4988%
- normalized response (LRRK2 activity) (LRRK2^RCKW; log[inhibitor(mol)] -8.61979): 81.2335% and 75.689%
- normalized response (LRRK2 activity) (LRRK2^RCKW; log[inhibitor(mol)] -9.09691): 74.4661% and 78.5518%
- normalized response (LRRK2 activity) (LRRK2^RCKW; log[inhibitor(mol)] -9.39794): 100.642% and 97.3515%
- dTm [1]: -0.30 K
- dTm [2]: 1.54 K

SMILES: COc1cc(S(C)(=O)=O)ccc1Nc1nc(N(C)C)c2c(Cl)c[nH]c2n1 [Compound 37]
- IC50 (LRRK2^RCKW): 7.21 ± 2.1 nM
- normalized response (LRRK2 activity) (LRRK2^RCKW; log[inhibitor(mol)] -4.82391): 24.6753% and 13.9482%
- normalized response (LRRK2 activity) (LRRK2^RCKW; log[inhibitor(mol)] -5.12494): 2.952% and 3.194%
- normalized response (LRRK2 activity) (LRRK2^RCKW; log[inhibitor(mol)] -5.60206): -7.27% and -5.12%
- normalized response (LRRK2 activity) (LRRK2^RCKW; log[inhibitor(mol)] -6.30103): -12.6171% and -9.349%
- normalized response (LRRK2 activity) (LRRK2^RCKW; log[inhibitor(mol)] -6.90309): -7.193% and -5.751%
- normalized response (LRRK2 activity) (LRRK2^RCKW; log[inhibitor(mol)] -7.30103): 5.9468% and 5.579%
- normalized response (LRRK2 activity) (LRRK2^RCKW; log[inhibitor(mol)] -7.60206): 17.6994% and 24.1378%
- normalized response (LRRK2 activity) (LRRK2^RCKW; log[inhibitor(mol)] -8.09691): 34.6729% and 53.1381%
- normalized response (LRRK2 activity) (LRRK2^RCKW; log[inhibitor(mol)] -8.61979): 84.0195% and 83.6411%
- normalized response (LRRK2 activity) (LRRK2^RCKW; log[inhibitor(mol)] -9.09691): 89.904% and 89.2624%
- normalized response (LRRK2 activity) (LRRK2^RCKW; log[inhibitor(mol)] -9.39794): 99.9785% and 100.571%
- dTm [1]: -0.22 K
- dTm [2]: -0.0653 K
